Measurements published in patent US20190321324A1, “QUATERNARY AMINE ANTIBIOTIC THERAPEUTICS” (BOARD OF REGENTS, THE UNIVERSITY OF TEXAS SYSTEM, priority 2016, published 2019).
Values after ≈ are worked out from the molar mass of the structure shown. Counter-ions that a name gives are not always drawn. Like-named read-outs stand apart in the source and are kept apart here.

How the values were obtained:
A. baumannii = A. baumannii MIC of clinically used QACs; type: cell-based, Acinetobacter baumannii; settings: for MIC: unit assumed; for Effect of ribosomal mutations on MIC (in words): BAC resistant mutants, S11 and L24 (Mutants 1 and 4); for Prevention of growth (in words): antibiotic resistant and susceptible A. baumannii
Experimental: (§1) The antimicrobial activity of three QACs that have been approved for human use; Bretylium tosylate, Clofilium tosylate, and Otilonium bromide, were tested (FIG. 1). The length of the hydrocarbon tail on BAC is known to strongly influence its behavior. Clofilium tosylate and Otilonium bromide both have hydrocarbon tails that are hypothesized to allow cell envelope penetration. […] Similar activity was determine for these three compounds in S. aureus (Table 2)
BAC, Bretylium tosylate, Clofilium tosylate, and Otilonium bromide are all QACs but with different structures. […] Bretylium tosylate, Clofilium tosylate, and Otilonium bromide were tested on BAC resistant mutants representing mutations in ribosomal proteins S11, L23, L24 and the UTR of the ribosomal operon. […] The MIC to Otilonium bromide was not affected in these mutants.

S. aureus = S. aureus MIC of clinically used QACs; type: cell-based, Staphylococcus aureus; settings: unit assumed
Experimental: as §1

C. difficile = C. difficile minimal bactericidal assay (MBC); type: cell-based, Clostridium difficile; settings: Clostridioides difficile, 20 h, 20 h at 37° C., anaerobic
Experimental: Activity of Otilonium bromide was also tested using two strains of C. difficile, 43255 and 630 (MDR). The minimal bactericidal assay was performed using 5×10^5 C. difficile bacteria where incubated with vancomycin or OB at the indicated concentrations for 20 h at 37° C. in an anaerobic chamber. The total volume per well in BHIS medium was 100 μl and 5 μL was spotted on RCM medium and plates were incubated for 24 h. The MBC is identified as the concentration of compound the reduced cfu to single or no numbers.

A. baumannii lon mutant = assay: Sensitivity of A. baumannii lon mutant to Otilonium bromide treatment; type: cell-based, Acinetobacter baumannii

**Q.** Which MIC (A. baumannii; BAC resistant Mutant 7 (19)) does the source give for Clofilium tosylate here?
**A.** 256 µg/mL

**Q.** And the MIC (A. baumannii; BAC resistant Mutant 8 (3))?
**A.** 256 µg/mL

**Q.** What about the “Effect of ribosomal mutations on MIC (in words)” value (A. baumannii) of the same molecule?
**A.** increased resistance

**Q.** And the “Prevention of growth (in words)” value (A. baumannii)?
**A.** prevent growth

**Q.** And the MIC (A. baumannii; strain 17978)?
**A.** 128 µg/mL

**Q.** And the MIC (A. baumannii; strain AYE (MDR))?
**A.** 128 µg/mL

**Q.** What about the MIC (S. aureus; strain MU50 (MDR)) of the same molecule?
**A.** 32 µg/mL

**Q.** And the MIC (S. aureus; strain Newman)?
**A.** 16 µg/mL

**Q.** CN[C@H](CC(C)C)C(=O)N[C@H]1C(=O)N[C@@H](CC(N)=O)C(=O)N[C@H]2C(=O)N[C@H]3C(=O)N[C@H](C(=O)N[C@H](C(=O)O)c4cc(O)cc(O)c4-c4cc3ccc4O)[C@H](O)c3ccc(c(Cl)c3)Oc3cc2cc(c3O[C@@H]2O[C@H](CO)[C@@H](O)[C@H](O)[C@H]2O[C@H]2C[C@](C)(N)[C@H](O)[C@H](C)O2)Oc2ccc(cc2Cl)[C@H]1O [Vancomycin] was tested. Which MBC (C. difficile; strain 630 (MDR)) did it give?
**A.** ~2 µg/mL (≈ 1.38 µM)

**Q.** And the MBC (C. difficile; strain 43255)?
**A.** 1 µg/mL (≈ 0.69 µM)

**Q.** Which results are given for CC[N+](C)(C)Cc1ccccc1Br [Bertylium tosylate, Bretylium tosylate]?
**A.** MIC (A. baumannii; BAC resistant Mutant 1 (20)): > 256 µg/mL; MIC (A. baumannii; BAC resistant Mutant 4 (23)): > 256 µg/mL; MIC (A. baumannii; BAC resistant Mutant 7 (19)): > 256 µg/mL; MIC (A. baumannii; BAC resistant Mutant 8 (3)): > 256 µg/mL; Prevention of growth (in words) (A. baumannii): did not show activity; MIC (A. baumannii; strain 17978): > 256 µg/mL; MIC (A. baumannii; strain AYE (MDR)): > 256 µg/mL; MIC (S. aureus; strain MU50 (MDR)): > 256 µg/mL; MIC (S. aureus; strain Newman): > 256 µg/mL

**Q.** Which results are given for CCCCCCCCOc1ccccc1C(=O)Nc1ccc(C(=O)OCC[N+](C)(CC)CC)cc1.[Br-] [Otilonium bromide]?
**A.** MIC (A. baumannii; BAC resistant Mutant 1 (20)): 16 µg/mL; MIC (A. baumannii; BAC resistant Mutant 4 (23)): 16 µg/mL; MIC (A. baumannii; BAC resistant Mutant 7 (19)): 16 µg/mL; MIC (A. baumannii; BAC resistant Mutant 8 (3)): 16 µg/mL; Effect of ribosomal mutations on MIC (in words) (A. baumannii): not affected; Prevention of growth (in words) (A. baumannii): prevent growth; MIC compared with BAC (A. baumannii; strain 17978): equivalent to that of BAC; MIC (A. baumannii; strain 17978): 16 µg/mL; MIC (A. baumannii; strain AYE (MDR)): 16 µg/mL; MIC (S. aureus; strain MU50 (MDR)): 4 µg/mL; MIC (S. aureus; strain Newman): 2 µg/mL; MBC (C. difficile; strain 630 (MDR), read-out: MBC): 2 µg/mL; MBC (C. difficile; strain 43255, read-out: MBC): 1 µg/mL; Sensitivity of lon mutant (in words) (A. baumannii lon mutant): highly sensitized
